# Source: publication PMC12491701, “Discovery of an APP-selective BACE1 inhibitor for Alzheimer's disease” (Neurotherapeutics, 2025)
# Like-named read-outs stand apart in the source and are kept apart here.
# Columns and labels:
# [1] = Liver microsome stability assay; format: in vitro ADME; settings: human, human liver microsomes, pH 7.4, human liver microsomes; read-out: Microsomal stability T1/2
# Method: Liver microsome stability assay
# A 1 µL sample of 1 mM FAH65 and its enantiomers in 100% DMSO was added to 1 mL of 0.5 mg/mL human liver microsomes (Thermo Fisher Scientific, Cat# HMMPL) in PBS pH 7.4, 2 mM NADPH, and 2 mM MgCl2; and incubated at 37 °C for 120 min. Aliquots (50 µL) of the microsome solution were taken […]
# quenching solution containing an internal standard. Solutions were clarified by centrifugation (16K x g, 5 min) and supernatants transferred to new tubes and lyophilized. Samples were reconstituted in 100 µL of 50/50/0.1 water/acetonitrile/formic acid prior to analysis via LC-MS/MS.
# Normalized chromatographic peak areas were plotted at each time point and the half-life (t1/2) of compound in liver microsomes was determined by using the trendline equation to calculate the time at which compound abundance was 50% of that at timepoint 0 (T0).
# One µL FAH65 and its enantiomers (1 mM in 100% DMSO) was added to human peripheral blood plasma (Cat#70039, Stemcell Technologies Inc) diluted 2-fold in PBS (1000 µL, pH 7.4) and incubated […]
# and 180 min, and added to a 200 µL 100% acetonitrile reaction quenching solution containing an internal standard. Solutions were clarified by centrifugation (16K x g, 5 min) and supernatants were transferred to new tubes and lyophilized. […]
# B254 mice = experiment: Efficacy testing in B254 mice; format: in vivo, mouse
# Text: (§1) B254 mice are an AD model comprising expression of human APP with Swedish and Indiana mutations along with a D664A substitution and endogenous murine tau, as described in Galvan et al.. In our in vivo studies, we detected impairment in learning and memory in B254 D664A mice at 5–6 months of age (end of chronic treatment) in the novel location and novel object spatial memory testing paradigms. We note that previous studies have reported conflicting findings for such impairments when using in the Morris Water Maze. […] In a later study performed by a different group, it was reported that at both 2–3 or 5–7 months of age B254 and J20 mice had similar abnormalities relative to non-transgenic mice in spatial and nonspatial learning and memory. Our findings were in alignment with the latter studies.
# (§2) Male and female 4-5 month-old B254 mice in the subchronic and chronic treatment were administered FAH65 via pipette feeding by the method of Atcha et al. at a dose of 30 mg/kg BID (60 mg/kg/day). Mice were weighed before the first dose for the calculation of volume to be administered. The formulation used comprised FAH65 hydrochloride as a 40 mg/mL solution in water plus 30 mg/mL in strawberry syrup.
# (§3) In the pilot subchronic study, mice were treated for 10 days, and in the follow-up study, for 26 days. One week before the end of the study, mice in the pilot study underwent Novel Object Recognition (NOR) memory testing, and mice in the follow-up chronic study underwent both NOR and Novel Location Recognition (NLR) testing as described elsewhere. Briefly, mice are introduced to two identical, parallel and evenly objects in an opaque 30 × 40 cm arena (box without a lid) with navigation marks on the wall, for 10 min. For Novel Location Recognition (NLR), after a 2.5-h interval, the mouse is returned to the arena wherein one identical object has been moved diagonally. The time spent and number of discreet interactions with the objects in the original location and in the new location over 10 min is recorded. The mouse is then removed from the arena, and after an additional 2.5-h interval, for the Novel Object Recognition (NOR) phase, is returned to the arena wherein the objects are in the original position, but one is a new, different object. The time spent and number of discreet interactions with the objects in the original location and in the new location over 10 min is recorded. The novelty preference was calculated by […].
# (§4) For in vivo studies, Individual tissues were weighed and sonicated on ice with AlphaLISA Lysis Buffer complemented with HALT (Fisher catalog # 78446) to give a 10 % W/V sonicate. Total protein concentration was assessed by BCA assay (Fisher catalog # 23227) following manufacturer recommendations.
# (§5) For the ELISA assay to assess sAPPβ levels in brain an IBL ELISA (kit #27733) specific for sAPPβ with the Swedish (K595 N/M596L) mutation that is present in the APP transgene of the mouse model used following the kit instructions. Briefly, 499 μL of EIA buffer was added to individual tubes for each sample, 1 μL of sample added, vortexed and centrifuged. To each assay plate well, 100 μL of sample was added, and the covered plate incubated overnight at 4 °C. The plate(s) was washed 4 times with 350 μL/well wash buffer, then 100 μL/well of labeled antibody added followed by incubation for 30 min at 4 °C. After five washes, 100 μL chromogen solution was added to each well and incubated for 30 min at RT in the dark. Stop solution (100 μL/well) was then added and the plate read at 450 nm. […]
# [2] = Efficacy testing in B254 mice; format: in vivo, mouse; settings: both sexes, B254, mouse, brain, oral, 30 mg/kg BID, read-out: mean brain level of compound
# Text: as §1, §2, §3, §4, §5
# [3] = chronic study, oral 30 mkd, 26 days
smiles,measurement,setting,value
Cc1cc(C2(c3cccc(-c4cncnc4)c3)N=C(N)N(C)C2=O)ccc1OC(F)F (centres unmarked) [FAH65],half-life at 1 µM,[1],38 min
same,novelty preference in NOR vs. vehicle,B254 mice; [3],significant increase
same,novelty preference in Novel Location Recognition (NLR) vs. vehicle,B254 mice; [3],significant increase
same,brain level of Aβ1-42 vs. vehicle,"B254 mice; chronic, 26 days",not significantly different
same,brain level of sAPPβ vs. vehicle,"B254 mice; chronic, 26 days",not significantly different
same,sAPPα in brain tissue vs. vehicle,"B254 mice; chronic, 26 days",significantly higher
same,sAPPβ/sAPPα ratio in brain tissue vs. vehicle,"B254 mice; chronic, 26 days",significantly lower
same,Novel Object Recognition (NOR) performance vs. vehicle,"B254 mice; pilot subchronic study, oral 30 mkd, 10 days",not significantly increased
same,"GFAP, IP-10, Aβ1-38, Aβ1-40, Aβ1-42 and Aβ1-42/1-40 ratio in brain (MSD) vs. vehicle",B254 mice; subchronic study,no significant differences
same,APP β-CTF in brain tissue vs. vehicle,"B254 mice; subchronic, 10 days",significant decrease
same,Aβ 1-42 in brain vs. vehicle,"B254 mice; subchronic, 10 days",not significant
same,p-tau/t-tau ratio in brain vs. vehicle,"B254 mice; subchronic, 10 days",not significant
same,concentration at 2 h,"[2]; chronic, 2 h after last day dosing",~50 ng/g
same,concentration at 2 h,"[2]; subchronic, 2 h after the last dose",~20 ng/g
